Experimental data published in patent US20080044419A1, “Treatment of T Cell Mediated Diseases by Inhibition of Fgfr3” (Fibron Ltd., priority 2003, published 2008).

What was measured:
[1] = system: Collagen Induced Arthritis (CIA) mice; assay: Murine Collagen Induced Arthritis (CIA) model, paw edema; assay type: in vivo; details: i.p. daily injections
Procedure: Murine collagen-induced arthritis (CIA) is considered a useful model for studying human RA since the two diseases share numerous pathologic, immunological, and genetic features. The CIA model in mice results in a symmetric polyarthritis in which bone and cartilage erosion typically occur, 2-4 weeks after immunization with […] type II collagen on complete Freud's adjuvant (CFA).
Male DBA/l mice (8-10 weeks old) were subject to an intradermal injection at the base of the tail with 200 μg type II collagen purified from bovine articular cartilage emulsified in CFA. The mice received a booster injection of 200 μg type II collagen emulsified in CFA three weeks after the first dose.
The mice were checked daily and each animal with edema in one or more limbs was randomly assigned to one of several groups for further treatment. The thickness of each affected hind paw was measured with microcalipers. The results are expressed as a direct measure of paw width in millimeters.
Each mouse was injected intraperitoneally on the day following disease onset (day 1) with 100 ug anti-FGFR3-ScFv or anti-FGFR3 Fab′ or 20 mg/kg of a FGFR3 specific tyrosine kinase (TK) inhibitor (SU5402, Calbiochem, La Jolla, Calif.), followed by daily injections with 300 μg anti-FGFR3 ScFv or anti-FGFR3 Fab′ or with 20 mg/kg SU5402.

[2] = system: cutaneous delayed type hypersensitivity reactions in mice; assay: Delayed type hypersensitivity (DTH) assay, oxazolone, ear thickness; assay type: in vivo; details: treated mice, oxazolone challenge, measured after 24 hours
Procedure: The mouse model for cutaneous delayed type hypersensitivity reactions was used to investigate the effects of FGFR3 inhibitors on induced skin inflammation. Oxazolone solutions (2% and 0.5%) were prepared by dissolving 200 and 50 mg, respectively, of oxazolone in 8 ml of acetone and 2 ml of olive oil. Mice were challenged with oxazolone by topical application onto the abdomen of each mouse (100 μl of 2% oxazolone) followed by 10 μl of 0.5% oxazolone on the right ear after 6 days. Differences between right and left ear thickness, indicating DTH development, were measured after 24 hours using a microcaliper.

**Q.** Which results are given for Cc1c[nH]c(/C=C2\C(=O)Nc3ccccc32)c1CCC(=O)O [SU5402]?
**A.** reduction in paw edema [1]: significant reduction; DTH reaction: induction of edema (ear thickness difference) [2]: no induction of edema
